Paper PMC4712357 (Molecular informatics, 2015)

Assay: Vesicle rupture assay
Assay type: biochemical
Details: POPC LUVs, relative to Triton X-100 (=100%)

For EWGQGLTSFWHL [compound 2], the “rupturing of POPC vesicles” value was 50–75%.
